{"source": "patent US20130316015A1", "about": "“Methods for Repairing Cartilage” (MOUNT SINAI HOSPITAL, priority 2011, published 2013)", "system": "full thickness chondrocytes", "assay": "In vitro-formed cartilage on membrane inserts: DNA, GAG and collagen contents", "type": "cell-based, calves", "protocol": "Membrane inserts (Millicell-CM®, Millipore Corp., Bedford, Mass., USA) were coated with type II collagen (0.5 mg/ml in 0.1N acetic acid; Sigma Chemical Co., St. Louis, Mo., USA) and dried overnight. The membrane inserts were UV sterilized for 30 minutes and soaked in Ham's F12 for 30 minutes prior to cell culturing.\nCartilage was aseptically excised from the full thickness of metacarpal-phalangeal articular cartilage from 9 to 12 months old calves within 24 hours of death as previously described. For the experiment investigating the response of chondrocytes zonal subpopulations to inorganic polyphosphate, cartilage was excised as the superficial-mid zone (top 70%) and the deep-zone (bottom 30%). Chondrocytes were harvested from the tissue by sequential enzymatic digestion (0.5% protease (Sigma Chemical Co., St. Louis, Mo., USA) for 2 hours followed by 0.1% collagenase (Roche Diagnostics GmbH, Mannheim, Germany) overnight). The cells were then seeded on top of membrane inserts (1×10^6 cells per construct) in Ham's F-12 supplemented with 5% fetal bovine serum (FBS) (HyClone, Logan, Utah, USA) and incubated at 37° C. in an atmosphere characterized by 95% relative humidity and 5% CO2. On day 5, the serum concentration was changed to 20% and supplemented with ascorbic acid (100 μg/ml, Sigma Chemical Co., St. Louis, Mo., USA). At this time, cultures were incubated in the presence or absence of various concentrations of sodium phosphate glasses (inorganic polyphosphate; Sigma Chemical Co., St. Louis, Mo., USA) or sodium phosphate buffer. The concentrations of inorganic polyphosphate utilized for each experiment are calculated based on the phosphate content. Cultures were grown for up to 4 weeks following initiation of the inorganic polyphosphate treatment. […]\nIn vitro and ex vivo-cultured cartilage tissues were harvested and washed twice in PBS. […] The fluorescence was visualized with a Zeiss Axioplan epifluorescence microscope using a wide pass DAPI filter. […]\nCartilage tissues were digested with papain (Sigma Chemical Co., St. Louis, Mo., USA; 40 μg·ml^−1) in digestion buffer (20 mM ammonium acetate, 1 mM EDTA and 2 mM DTT) for 48 hours at 65° C. […] The DNA content was assessed using the Hoechst 33258 dye (Polysciences Inc., Washington, Pa., USA) binding assay and fluorometry (emission wavelength: 458 nm; excitation wavelength: 365 nm). […]\nThe proteoglycan and collagen contents of cartilage tissues were also measured from aliquots of the papain digest. The proteoglycan content was estimated by quantifying the amount of sulphated GAG using the dimethylmethylene blue dye (Polysciences Inc., Washington, Pa., USA) binding assay and quantifying the colour spectrophotometrically at 525 nm. […] The collagen content was estimated by quantifying the hydroxyproline. […]", "key": {"[1]": {"conditions": "1 mM, 2 weeks in culture, normalized to DNA content, mean ± SEM"}}}
{"smiles": "O=P(O)(O)O", "note": "[Phosphate, sodium phosphate]", "values": [{"measurement": "DNA Content", "setting": "1 mM, 2 weeks in culture, mean ± SEM", "value": "8.5 ± 0.92", "unit": "µg"}, {"measurement": "Collagen Content", "setting": "[1]", "value": "105.3 ± 9.5 % of control"}, {"measurement": "GAG Content", "setting": "[1]", "value": "112.5 ± 14.8 % of control"}, {"measurement": "DNA, GAG and collagen contents compared to non-supplemented medium", "setting": "concentrations equivalent to those used for polyphosphate, 2 weeks", "value": "did not significantly alter"}]}
